Where two headings read alike, the source gives them in different places.
What was measured:
Hs888 Lu = conditions: 5 days; AR2A72.10 and AR3BD-26 20 μg/mL, anti-fas and anti-Her2/neu 10 μg/mL, anti-EGFR 5 μg/mL, cycloheximide 0.5 μM, NaN3 0.1%
Method: Antibodies were tested against a panel of ovarian cancer, and normal cell lines. Two ovarian cancer (OVCAR-3, Sk-OV-3) and non-cancer (CCD-27sk, Hs888.Lu) cell lines were obtained from the ATCC, Manassas, Va. A2780-cp, A2780-s, C-13, OV2008, ES-2, Hey, OCC-1, OVCA-429 were obtained from the Ottawa Regional Cancer Center (Ottawa, ON). The Live/Dead cytotoxicity assay was obtained from Molecular Probes (Eugene, Oreg.). The assays were performed according to the manufacturer's instructions with the changes outlined below. Cells were plated before the assay at the predetermined appropriate density. After 2 days, purified antibody or controls were diluted into media, and then 100 microliters were transferred to the cell plates and incubated in a 5 percent CO2 incubator for 5 days. The plate was then emptied by inverting and blotted dry. Room temperature DPBS containing MgCl2 and CaCl2 was dispensed into each well from a multi-channel squeeze bottle, tapped three times, emptied by inversion and then blotted dry. 50 microliters of the fluorescent calcein dye diluted in DPBS containing MgCl2 and CaCl2 was added to each well and incubated at 37° C. in a 5 percent CO2 incubator for 30 minutes. […]

[1] = Live/Dead cytotoxicity assay, hybridoma supernatant; assay type: cell-based; conditions: human, hybridoma supernatant (or cycloheximide positive control), calcein
Method: Three human breast cancer cell lines were tested: MDA-MB-231, MDA-MB-468 and SKBR-3. […] The wells that served as the positive controls were aspirated until empty and 100 μL of sodium azide (NaN3) or cycloheximide was added. After 5 days of treatment, the plates were then emptied by inverting and blotting dry. […] The AR2A72.10 hybridoma produced specific cytotoxicity of 15,27 and 44 percent in MDA-MB-231, MDA-MB-468 and SKBR-3 cells respectively. The known non-specific cytotoxic agent cycloheximide produced cytotoxicity as expected given the limitations of in vitro biological assays.

With [N-]=[N+]=[N-] [NaN3, sodium azide] as the molecule, how does the “In vitro cytotoxicity, Hs888 Lu (normal)” value (Hs888 Lu) read?
The value was “+++ (4/4 experiments greater than threshold cytotoxicity)”.

Which results are given for C[C@@H]1C[C@@H]([C@H](O)CC2CC(=O)NC(=O)C2)C(=O)[C@@H](C)C1 [Cycloheximide]?
cytotoxicity at 5 days ([1]; read-out: Cytotoxicity (%) MDA-MB-231 Average): 49%; cytotoxicity at 5 days ([1]; read-out: Cytotoxicity (%) MDA-MB-468 Average): 24%; cytotoxicity at 5 days ([1]; read-out: Cytotoxicity (%) SKBR-3 Average): 56%

Reference: patent publication US20050255041A1, “Cancerous disease modifying antibodies” (Arius Research, Inc., priority 2004, published 2005)
